The values below come from ChEMBL document CHEMBL3233010, “Design, synthesis and biological evaluation of novel 6-alkenylamides substituted of 4-anilinothieno[2,3-d]pyrimidines as irreversible epidermal growth factor receptor inhibitors” (Bioorg Med Chem, 2014).

Activity calls are given as the source filed them. The calls are words filed in the database; no cut-off is given here. Where only a bound is given, the exact number is not on record here.

For assay [1], the target named is T1, Epidermal growth factor receptor (Homo sapiens, UniProt P00533). Briefly: Inhibition of EGF-induced EGFR autophosphorylation in human A431 cells pretreated for 2 hrs followed by EGF challenge by Western blotting analysis. Particulars: A-431. It is filed as cell-based.
Assay [2] deals with T1, Epidermal growth factor receptor. Briefly: Inhibition of EGFR in human A431 cells assessed as inhibition of EGF-induced AKT phosphorylation at 0.1 to 1 umol/L pretreated for 2 hrs followed by EGF challenge by Western blotting analysis. Particulars: A-431. In kind it is cell-based.
Assay [3] deals with Epidermal growth factor receptor (Homo sapiens), P00533 [L858R,T790M]. Kind of assay: Inhibition of EGFR T790M/L858R double mutant in human NCI-H1975 cells assessed as inhibition of EGF-induced ERK1/2 phosphorylation pretreated for 2 hrs followed by EGF challenge by Western blotting analysis. In kind it is cell-based.
Assay [4] deals with T1, Epidermal growth factor receptor. Kind of assay: Inhibition of EGF-induced EGFR autophosphorylation in human A431 cells at 0.1 umol/L pretreated for 2 hrs followed by EGF challenge by Western blotting analysis. Particulars: A-431. It is filed as cell-based.
The subject of the next assay is NCI-H1975. Kind of assay: Antiproliferative activity against gefitinib-resistant human NCI-H1975 cells assessed as growth inhibition after 72 hrs by SRB assay. In kind it is functional, cell-based. Particulars: NCI-H1975, 72 h.
The subject of the next assay is A-431. Briefly: Antiproliferative activity against human A431 cells assessed as growth inhibition after 72 hrs by SRB assay. It is filed as functional, cell-based. Particulars: A-431, 72 h.
For assay [5], the target named is T1, Epidermal growth factor receptor. Kind of assay: Inhibition of EGFR in human A431 cells assessed as inhibition of EGF-induced ERK1/2 phosphorylation at 0.1 to 1 umol/L pretreated for 2 hrs followed by EGF challenge by Western blotting analysis. It is filed as cell-based. Particulars: A-431.
Assay [6] has as its system Epidermal growth factor receptor (Homo sapiens), P00533 [L858R,T790M]. Briefly: Inhibition of EGFR T790M/L858R double mutant in human NCI-H1975 cells assessed as inhibition of EGF-induced AKT phosphorylation pretreated for 2 hrs followed by EGF challenge by Western blotting analysis. In kind it is cell-based.
The test system is the same in assay [7]. Kind of assay: Inhibition of EGF-induced EGFR T790M/L858R double mutant phosphorylation in human NCI-H1975 cells pretreated for 2 hrs followed by EGF challenge by Western blotting analysis. In kind it is cell-based.
Assay [8] concerns the target T1, Epidermal growth factor receptor. Briefly: Inhibition of wild type EGFR domain (unknown origin) expressed in baculovirus expression system using Poly(Glu:Tyr)4:1 substrate after 60 mins by ELISA.
In assay [9] the target is Epidermal growth factor receptor (Homo sapiens, UniProt P00533, L858R/T790M). Kind of assay: Inhibition of EGFR T790M/L858R double mutant (unknown origin) expressed in baculovirus expression system using Poly(Glu:Tyr)4:1 substrate after 60 mins by ELISA.
Epidermal growth factor receptor (Homo sapiens, UniProt P00533, L858R/T790M), sequence (P00533 25-1210 T790M/L858R limits assumed): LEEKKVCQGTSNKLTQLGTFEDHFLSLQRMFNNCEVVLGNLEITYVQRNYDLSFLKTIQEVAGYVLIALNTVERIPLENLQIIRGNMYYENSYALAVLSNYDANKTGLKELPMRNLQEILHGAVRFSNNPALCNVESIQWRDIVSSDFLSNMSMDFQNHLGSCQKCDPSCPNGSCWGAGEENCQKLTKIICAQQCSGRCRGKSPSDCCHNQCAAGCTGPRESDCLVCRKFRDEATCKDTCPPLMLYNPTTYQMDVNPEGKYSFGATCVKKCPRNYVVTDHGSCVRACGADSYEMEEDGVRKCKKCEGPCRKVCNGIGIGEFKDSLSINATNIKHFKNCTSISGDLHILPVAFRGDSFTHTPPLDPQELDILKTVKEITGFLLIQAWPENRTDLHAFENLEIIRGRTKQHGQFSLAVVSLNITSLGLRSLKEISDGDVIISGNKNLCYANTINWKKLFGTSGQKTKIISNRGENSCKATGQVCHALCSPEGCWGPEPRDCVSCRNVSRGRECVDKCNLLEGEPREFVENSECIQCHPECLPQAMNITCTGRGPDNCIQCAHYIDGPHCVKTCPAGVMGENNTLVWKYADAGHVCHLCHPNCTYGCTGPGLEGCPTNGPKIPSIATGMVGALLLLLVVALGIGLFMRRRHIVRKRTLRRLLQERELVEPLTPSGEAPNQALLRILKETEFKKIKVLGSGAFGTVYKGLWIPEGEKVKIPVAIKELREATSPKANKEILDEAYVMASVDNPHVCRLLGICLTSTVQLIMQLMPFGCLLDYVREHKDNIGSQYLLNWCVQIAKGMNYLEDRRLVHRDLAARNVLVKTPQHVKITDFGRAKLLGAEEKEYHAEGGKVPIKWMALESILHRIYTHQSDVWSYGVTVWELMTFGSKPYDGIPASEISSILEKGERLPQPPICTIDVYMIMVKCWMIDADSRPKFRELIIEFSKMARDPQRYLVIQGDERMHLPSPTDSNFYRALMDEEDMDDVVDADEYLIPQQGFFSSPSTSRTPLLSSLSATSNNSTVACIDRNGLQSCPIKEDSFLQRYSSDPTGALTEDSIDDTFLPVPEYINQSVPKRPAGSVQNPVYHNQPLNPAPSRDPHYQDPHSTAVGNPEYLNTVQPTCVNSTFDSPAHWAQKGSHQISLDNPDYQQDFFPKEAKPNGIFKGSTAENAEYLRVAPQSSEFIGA

Epidermal growth factor receptor (Homo sapiens), P00533 [L858R,T790M], sequence (P00533 whole entry T790M/L858R, looked up): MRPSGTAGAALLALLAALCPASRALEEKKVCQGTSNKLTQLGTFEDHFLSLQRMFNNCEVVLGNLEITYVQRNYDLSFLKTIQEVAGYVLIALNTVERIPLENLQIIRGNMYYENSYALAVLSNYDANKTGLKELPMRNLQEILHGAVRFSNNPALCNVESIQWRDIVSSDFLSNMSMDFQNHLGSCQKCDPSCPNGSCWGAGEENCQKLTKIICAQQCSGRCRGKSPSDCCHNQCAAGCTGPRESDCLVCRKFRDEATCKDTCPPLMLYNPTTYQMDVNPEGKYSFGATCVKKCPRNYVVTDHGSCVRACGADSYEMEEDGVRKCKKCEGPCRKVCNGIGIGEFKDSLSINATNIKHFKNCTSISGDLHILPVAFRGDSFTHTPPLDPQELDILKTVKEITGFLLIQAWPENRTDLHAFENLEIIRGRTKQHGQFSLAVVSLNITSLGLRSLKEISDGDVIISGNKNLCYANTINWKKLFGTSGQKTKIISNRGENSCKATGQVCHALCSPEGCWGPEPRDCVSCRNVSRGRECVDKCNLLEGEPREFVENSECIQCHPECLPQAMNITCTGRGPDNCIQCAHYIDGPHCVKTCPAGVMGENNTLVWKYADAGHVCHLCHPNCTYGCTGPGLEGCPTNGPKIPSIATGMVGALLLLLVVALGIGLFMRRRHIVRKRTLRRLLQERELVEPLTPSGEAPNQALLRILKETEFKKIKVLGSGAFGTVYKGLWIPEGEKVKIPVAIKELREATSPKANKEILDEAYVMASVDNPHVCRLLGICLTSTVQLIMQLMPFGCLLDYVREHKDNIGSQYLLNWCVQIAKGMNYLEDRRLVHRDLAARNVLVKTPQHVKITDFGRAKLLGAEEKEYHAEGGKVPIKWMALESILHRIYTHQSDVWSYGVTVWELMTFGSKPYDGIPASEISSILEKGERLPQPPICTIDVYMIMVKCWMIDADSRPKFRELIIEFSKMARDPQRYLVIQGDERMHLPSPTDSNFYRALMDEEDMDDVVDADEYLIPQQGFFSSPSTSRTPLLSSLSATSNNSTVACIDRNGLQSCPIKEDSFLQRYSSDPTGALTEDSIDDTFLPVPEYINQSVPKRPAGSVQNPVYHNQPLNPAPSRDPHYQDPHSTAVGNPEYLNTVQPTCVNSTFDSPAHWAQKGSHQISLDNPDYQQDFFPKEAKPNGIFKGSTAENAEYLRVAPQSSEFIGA
T1 sequence (P00533 whole entry): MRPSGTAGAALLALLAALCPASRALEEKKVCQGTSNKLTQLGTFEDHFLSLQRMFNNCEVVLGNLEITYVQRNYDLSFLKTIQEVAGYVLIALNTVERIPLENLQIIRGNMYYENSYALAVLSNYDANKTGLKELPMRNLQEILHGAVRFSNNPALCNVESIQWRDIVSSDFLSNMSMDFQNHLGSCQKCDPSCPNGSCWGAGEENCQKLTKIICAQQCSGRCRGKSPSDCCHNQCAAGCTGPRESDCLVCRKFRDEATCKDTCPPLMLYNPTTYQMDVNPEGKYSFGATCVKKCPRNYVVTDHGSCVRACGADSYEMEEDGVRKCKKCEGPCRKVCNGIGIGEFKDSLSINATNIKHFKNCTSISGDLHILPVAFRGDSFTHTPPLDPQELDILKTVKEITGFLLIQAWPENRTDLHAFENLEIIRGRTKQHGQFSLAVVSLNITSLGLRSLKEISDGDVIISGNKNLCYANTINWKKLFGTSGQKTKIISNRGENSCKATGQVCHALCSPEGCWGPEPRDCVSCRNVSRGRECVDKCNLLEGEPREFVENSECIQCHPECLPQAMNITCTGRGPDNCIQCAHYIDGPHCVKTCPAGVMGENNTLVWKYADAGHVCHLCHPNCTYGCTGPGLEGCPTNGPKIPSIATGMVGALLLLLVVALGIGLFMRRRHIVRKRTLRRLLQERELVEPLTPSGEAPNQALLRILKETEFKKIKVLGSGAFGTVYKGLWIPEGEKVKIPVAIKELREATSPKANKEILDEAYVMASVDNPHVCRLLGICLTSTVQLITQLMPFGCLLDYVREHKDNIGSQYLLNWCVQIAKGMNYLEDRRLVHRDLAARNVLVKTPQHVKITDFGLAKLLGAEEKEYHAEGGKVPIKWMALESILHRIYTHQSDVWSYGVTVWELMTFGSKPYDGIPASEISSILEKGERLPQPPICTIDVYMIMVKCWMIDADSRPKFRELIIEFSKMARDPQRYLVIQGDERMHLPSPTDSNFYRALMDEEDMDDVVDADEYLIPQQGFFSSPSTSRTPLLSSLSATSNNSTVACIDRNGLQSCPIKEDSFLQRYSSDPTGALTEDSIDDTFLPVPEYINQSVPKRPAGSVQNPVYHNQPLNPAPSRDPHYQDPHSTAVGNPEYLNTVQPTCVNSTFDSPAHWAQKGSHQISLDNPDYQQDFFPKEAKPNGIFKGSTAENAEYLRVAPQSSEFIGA

Consider `O=C(/C=C/CN1CCC(F)(F)CC1)Nc1cc2c(Nc3ccc(F)c(Cl)c3)ncnc2s1`, for which the inhibition entry in assay [1], in [3], in assay [6] and in assay [7] was “Dose-dependent effect” throughout. Further, the inhibition entry in [2], in assay [4] and in [5] was “Active” each time. The IC50 with NCI-H1975 is 5.16 µM; with A-431, 1.2 µM; in assay [8], 0.007 µM; in assay [9], 0.004 µM.
Turning to `O=C(Nc1cc2c(Nc3ccc(F)c(Cl)c3)ncnc2s1)C1CCCC1`, the half-maximal inhibitory concentration (IC50) in the assay on NCI-H1975 is 39.3 µM; in the assay with A-431 it was 14.9 µM; in [8], above 10 µM; in assay [9] it was above 10 µM.
Take `O=C(/C=C/CN1CCC(F)(F)C1)Nc1cc2c(Nc3ccc(F)c(Cl)c3)ncnc2s1`: the IC50 in the assay on NCI-H1975 was 15.8 µM; with A-431 it was 3.69 µM; in [8] it was 0.028 µM; in assay [9] it was 1.76 µM.
In the case of `COC(=O)CC(=O)Nc1cc2c(Nc3ccc(F)c(Cl)c3)ncnc2s1`, the IC50 with NCI-H1975 is above 100 µM; in the assay on A-431, 21.3 µM; in assay [8] it was 5 µM; in assay [9], above 10 µM.
Regarding `O=C(CN1CCN(CCO)CC1)Nc1cc2c(Nc3ccc(F)c(Cl)c3)ncnc2s1`, the IC50 with NCI-H1975 is above 100 µM; in the assay on A-431, 10.2 µM; in [8], 0.77 µM; in assay [9] it was above 10 µM.
On to `CCCCC(=O)Nc1cc2c(Nc3ccc(F)c(Cl)c3)ncnc2s1`, for which the concentration for half-maximal inhibition (IC50) with NCI-H1975 is above 100 µM; in the assay with A-431, 14.2 µM; in assay [8], above 10 µM; in assay [9], above 10 µM.
Consider `CSC1CCN(C/C=C/C(=O)Nc2cc3c(Nc4ccc(F)c(Cl)c4)ncnc3s2)CC1`, for which the IC50 worked out at 5.22 µM in the assay with NCI-H1975, 1.13 µM with A-431, 0.018 µM in [8] and 0.026 µM in assay [9].
`O=C(CCl)Nc1cc2c(Nc3ccc(F)c(Cl)c3)ncnc2s1`: the IC50 in the assay with NCI-H1975 amounted to 3.01 µM; in the assay on A-431, 3.58 µM; in assay [8], 0.04 µM; in assay [9], 0.71 µM.
The corresponding values for `CS(=O)(=O)CCNC/C=C/C(=O)Nc1cc2c(Nc3ccc(F)c(Cl)c3)ncnc2s1` are 44.9 µM, 19.2 µM, 0.003 µM and 0.068 µM.
On to `CCN(CC)CCN(C)C/C=C/C(=O)Nc1cc2c(Nc3ccc(F)c(Cl)c3)ncnc2s1`, for which the IC50 was above 100 µM in the assay with NCI-H1975, 4.22 µM in the assay on A-431, 0.139 µM in assay [8] and 0.354 µM in assay [9].
For the compound `CN1CCN(CC(=O)Nc2cc3c(Nc4ccc(F)c(Cl)c4)ncnc3s2)CC1`, the IC50 with NCI-H1975 was 21.5 µM; in the assay with A-431 it was 1.7 µM; in [8] it was 3.4 µM; in [9], above 10 µM.
For `COC(CN(C)C/C=C/C(=O)Nc1cc2c(Nc3ccc(F)c(Cl)c3)ncnc2s1)OC`, the IC50 is 4.89 µM in the assay with NCI-H1975, 0.43 µM with A-431, 0.002 µM in [8] and 0.061 µM in assay [9].
The like results for `O=C(/C=C/CNCC1COC1)Nc1cc2c(Nc3ccc(F)c(Cl)c3)ncnc2s1` were, in that order, 62.2 µM, 3.93 µM, 0.01 µM and 0.022 µM.
Consider `CCC(CC)C(=O)Nc1cc2c(Nc3ccc(F)c(Cl)c3)ncnc2s1`, for which the IC50 in the assay with NCI-H1975 is above 100 µM; in the assay with A-431, 22.8 µM; in assay [8], above 10 µM; in assay [9], above 10 µM.
Regarding `O=C(/C=C/CNC1CCOCC1)Nc1cc2c(Nc3ccc(F)c(Cl)c3)ncnc2s1`, the half-inhibitory concentration (IC50) in the assay with NCI-H1975 was determined as 7.05 µM; in the assay with A-431, 2.21 µM; in assay [8] it was 0.02 µM; in assay [9], 0.032 µM.
As to `O=C(/C=C/CN1CCC2(CC1)OCCO2)Nc1cc2c(Nc3ccc(F)c(Cl)c3)ncnc2s1`, the IC50 was determined as 6.55 µM with NCI-H1975, 0.55 µM with A-431, 0.002 µM in assay [8] and 0.02 µM in assay [9].
For `O=C(/C=C/CN1CC2(CCOCC2)C1)Nc1cc2c(Nc3ccc(F)c(Cl)c3)ncnc2s1`, the IC50 with NCI-H1975 worked out at 39.2 µM; in the assay on A-431 it was 13.4 µM; in assay [8], 2.16 µM; in assay [9], 2.25 µM.
For the compound `O=C(/C=C/CN1CC2(COC2)C1)Nc1cc2c(Nc3ccc(F)c(Cl)c3)ncnc2s1`, the IC50 with NCI-H1975 was 5.54 µM; with A-431, 0.86 µM; in assay [8], 0.007 µM; in assay [9] it was 0.043 µM.
Turning to `CCN(CC)C/C=C/C(=O)Nc1cc2c(Nc3ccc(F)c(Cl)c3)ncnc2s1`, the IC50 in the assay on NCI-H1975 came out at 11.5 µM; in the assay on A-431, 0.64 µM; in assay [8] it was 0.008 µM; in assay [9], 0.035 µM.
For `CN(C)C/C=C/C(=O)Nc1cc2c(Nc3ccc(F)c(Cl)c3)ncnc2s1`, the IC50 with NCI-H1975 came out at 10.1 µM; with A-431 it was 0.25 µM; in [8], 0.024 µM; in [9] it was 0.324 µM.
As for `O=C(/C=C/CNCc1ncccn1)Nc1cc2c(Nc3ccc(F)c(Cl)c3)ncnc2s1`, the IC50 with NCI-H1975 was 53 µM; in the assay on A-431 it was 3.24 µM; in assay [8], 0.008 µM; in [9], 0.055 µM.
Consider `C=CCOC(=O)Nc1cc2c(Nc3ccc(F)c(Cl)c3)ncnc2s1`, for which the IC50 in the assay on NCI-H1975 amounted to 90.2 µM; in the assay with A-431, 26.6 µM.
`C/C=C(\C)C(=O)Nc1cc2c(Nc3ccc(F)c(Cl)c3)ncnc2s1`: the IC50 with NCI-H1975 was above 100 µM; with A-431 it was 24.2 µM; in assay [8] it was 6.41 µM; in [9], above 10 µM.
Take `CN(C)CCCNC/C=C/C(=O)Nc1cc2c(Nc3ccc(F)c(Cl)c3)ncnc2s1`: the IC50 with NCI-H1975 was above 100 µM; in the assay on A-431 it was 25.4 µM; in assay [8], 1.2 µM; in assay [9], 0.0007 µM.
The corresponding values for `CN(C)CCCN(C)C/C=C/C(=O)Nc1cc2c(Nc3ccc(F)c(Cl)c3)ncnc2s1` are above 100 µM, 3.41 µM, 0.093 µM and 1.04 µM.
As for `CCN1CCN(C/C=C/C(=O)Nc2cc3c(Nc4ccc(F)c(Cl)c4)ncnc3s2)CC1`, the IC50 in the assay with NCI-H1975 is 20.6 µM; in the assay on A-431, 4.37 µM; in [8], 0.035 µM; in [9], 0.004 µM.
The like results for `CC(C)N1CCN(C/C=C/C(=O)Nc2cc3c(Nc4ccc(F)c(Cl)c4)ncnc3s2)CC1` were, in that order, 20.7 µM, 4.78 µM, 0.034 µM and 0.002 µM.
The like results for `CN1CCN(C/C=C/C(=O)Nc2cc3c(Nc4ccc(F)c(Cl)c4)ncnc3s2)CC1` were, in that order, 34.8 µM, 4.47 µM, 0.124 µM and 0.003 µM.
As for `CN(C)CCCN(C)CC(=O)Nc1cc2c(Nc3ccc(F)c(Cl)c3)ncnc2s1`, the IC50 with NCI-H1975 is 19.1 µM; in the assay with A-431 it was 2.38 µM; in assay [8], 5.22 µM; in [9], 1.7 µM.
`O=C(/C=C/CN1CCC(F)CC1)Nc1cc2c(Nc3ccc(F)c(Cl)c3)ncnc2s1`: the 50% inhibitory concentration (IC50) in the assay with NCI-H1975 came out at 10.8 µM; with A-431 it was 2.4 µM.
Consider `O=C(CN1CCC(CCO)CC1)Nc1cc2c(Nc3ccc(F)c(Cl)c3)ncnc2s1`, for which the IC50 was 83.4 µM in the assay on NCI-H1975, 9.48 µM in the assay on A-431, 0.542 µM in [8] and above 10 µM in [9].
On to `CN(C)CCCC(=O)Nc1cc2c(Nc3ccc(F)c(Cl)c3)ncnc2s1`, for which the IC50 is 29.6 µM in the assay with NCI-H1975, 3.48 µM with A-431, 0.799 µM in [8] and 1.8 µM in assay [9].
Take `CN(C)CCN(C)CC(=O)Nc1cc2c(Nc3ccc(F)c(Cl)c3)ncnc2s1`: the IC50 with NCI-H1975 is 17.6 µM; in the assay with A-431, 1.59 µM; in [8] it was 4.29 µM; in assay [9] it was above 10 µM.
The corresponding values for `O=C(/C=C/CN1CC(O)C1)Nc1cc2c(Nc3ccc(F)c(Cl)c3)ncnc2s1` are 6.83 µM, 1.65 µM, 0.038 µM and 0.305 µM.
For `COCCNC/C=C/C(=O)Nc1cc2c(Nc3ccc(F)c(Cl)c3)ncnc2s1`, the IC50 with NCI-H1975 is 41.7 µM; with A-431 it was 4.85 µM; in assay [8] it was 1.04 µM; in assay [9], 0.005 µM.
In the case of `O=C(/C=C/CN1CCS(=O)(=O)CC1)Nc1cc2c(Nc3ccc(F)c(Cl)c3)ncnc2s1`, the IC50 with NCI-H1975 was found to be 75.4 µM; in the assay on A-431 it was 8.72 µM; in assay [8], 0.029 µM; in [9] it was 0.007 µM.
For the compound `COC(=O)CCCC(=O)Nc1cc2c(Nc3ccc(F)c(Cl)c3)ncnc2s1`, the half-maximal inhibitory concentration (IC50) with NCI-H1975 was above 100 µM; in the assay on A-431, 27.8 µM; in assay [8] it was above 10 µM; in assay [9], above 10 µM.
